Structures are written as SMILES.

This assay deals with T1, human HSL (Homo sapiens, UniProt Q05469).
T1 construct: overlapping PCR to generate a full length human HSL ORF with a 3′-His6 tag; His6 (C); made in house; host or cells: High 5 insect cells (baculovirus, pFast-BAC)
T1 sequence (Q05469 1-1076): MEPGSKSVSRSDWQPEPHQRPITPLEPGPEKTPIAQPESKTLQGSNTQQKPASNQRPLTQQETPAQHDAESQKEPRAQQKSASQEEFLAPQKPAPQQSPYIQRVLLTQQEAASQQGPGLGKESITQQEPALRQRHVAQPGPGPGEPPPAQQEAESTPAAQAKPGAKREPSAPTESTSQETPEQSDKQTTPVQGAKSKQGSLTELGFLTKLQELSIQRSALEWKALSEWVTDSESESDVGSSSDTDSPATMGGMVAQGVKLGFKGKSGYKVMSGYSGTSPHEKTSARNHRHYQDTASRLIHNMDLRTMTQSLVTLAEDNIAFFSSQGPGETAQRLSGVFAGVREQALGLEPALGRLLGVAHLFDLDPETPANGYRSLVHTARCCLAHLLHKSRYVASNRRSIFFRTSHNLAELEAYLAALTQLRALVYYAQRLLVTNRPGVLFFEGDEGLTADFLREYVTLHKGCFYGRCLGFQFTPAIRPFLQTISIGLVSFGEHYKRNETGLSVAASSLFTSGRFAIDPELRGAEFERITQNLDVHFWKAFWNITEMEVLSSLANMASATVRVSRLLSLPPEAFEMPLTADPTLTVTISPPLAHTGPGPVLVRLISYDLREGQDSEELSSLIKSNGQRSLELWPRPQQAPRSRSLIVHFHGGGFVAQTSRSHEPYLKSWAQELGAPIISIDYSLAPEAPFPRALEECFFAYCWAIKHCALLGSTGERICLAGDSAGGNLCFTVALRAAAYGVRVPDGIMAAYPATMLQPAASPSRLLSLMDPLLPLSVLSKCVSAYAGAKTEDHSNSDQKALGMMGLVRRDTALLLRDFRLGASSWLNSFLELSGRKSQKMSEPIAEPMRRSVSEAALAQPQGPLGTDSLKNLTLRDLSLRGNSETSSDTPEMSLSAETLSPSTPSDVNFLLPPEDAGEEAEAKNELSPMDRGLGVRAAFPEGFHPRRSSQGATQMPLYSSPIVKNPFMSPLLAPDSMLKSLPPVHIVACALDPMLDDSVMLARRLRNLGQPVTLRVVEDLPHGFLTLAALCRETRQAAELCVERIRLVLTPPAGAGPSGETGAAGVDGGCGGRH
As to the kind of experiment: Human Hormone-Sensitive Lipase (HSL) Enzyme Inhibition Assay. The assay is classed as biochemical. As to conditions: colorimetric assay, 2,3-dimercapto-1-propanol tributyrate (DMPT) substrate, 37° C. for 20 minutes, absorbance at 405 nm; read-out: HSL hum IC50. In a few lines:
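Colorimetric thioester hydrolysis: compounds in DMSO series mixed with DMPT (1.5 mM) in MOPS pH 7.2 with BSA, then baculovirus-expressed His6-tagged full-length human HSL added, 37° C, 20 min. DTNB plus detergents added, 15 min room temperature, absorbance at 405 nm.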
Turning to `O=C(CC1CCCC1)N1CCC2(CC1)CCN(c1ccc(C3CC3)cc1)C2=O` [Example 37, 8-(2-Cyclopentyl-acetyl)-2-(4-cyclopropyl-phenyl)-2,8-diaza-spiro[4.5]decan-1-one], the IC50 worked out at 220 nM.
For the compound `CC(C)CS(=O)(=O)N1CCC2(CCN(c3ccc(C4CC4)cc3)C2=O)CC1` [Example 65, 2-(4-Cyclopropyl-phenyl)-8-(2-methyl-propane-1-sulfonyl)-2,8-diaza-spiro[4.5]decan-1-one], the IC50 was found to be 100 nM.
Take `CC(C)(Oc1ccc(N2CCC3(CCN(S(=O)(=O)c4ccccc4)CC3)C2=O)cc1)C(F)(F)F` [Example 5, 8-Benzenesulfonyl-2-[4-(2,2,2-trifluoro-1,1-dimethyl-ethoxy)-phenyl]-2,8-diaza-spiro[4.5]decan-1-one]: the IC50 was found to be 40 nM.
To `O=C(Nc1ccc(F)cc1)N1CCC2(CC1)CCN(c1ccc(OC(F)(F)F)cc1)C2=O` [Example 259, 1-Oxo-2-(4-trifluoromethoxy-phenyl)-2,8-diaza-spiro[4.5]decane-8-carboxylic acid (4-fluoro-phenyl)-amide] belongs 400 nM.
Consider `O=C1N(c2ccc(Oc3cccnc3)cc2)CCC12CCN(S(=O)(=O)c1ccccc1Cl)CC2` [Example 132, 8-(2-Chloro-benzenesulfonyl)-2-[4-(pyridin-3-yloxy)-phenyl]-2,8-diaza-spiro[4.5]decan-1-one], for which the IC50 stood at 280 nM.
`O=C1N(c2ccc(C(O)(C(F)(F)F)C(F)(F)F)cc2)CCC12CCN(S(=O)(=O)c1ccccc1Cl)CC2` [Example 157, 8-(2-Chloro-benzenesulfonyl)-2-[4-(2,2,2-trifluoro-1-hydroxy-1-trifluoromethyl-ethyl)-phenyl]-2,8-diaza-spiro[4.5]decan-1-one]: the IC50 worked out at 40 nM.
Regarding `COCC(C)(C)c1ccc(N2CCC3(CCN(S(=O)(=O)CC(C)C)CC3)C2=O)cc1` [Example 108, 2-[4-(2-Methoxy-1,1-dimethyl-ethyl)-phenyl]-8-(2-methyl-propane-1-sulfonyl)-2,8-diaza-spiro[4.5]decan-1-one], the IC50 is 100 nM.
`Cn1cc2cc(N3CCC4(CCN(S(=O)(=O)c5ccccc5Cl)CC4)C3=O)ccc2n1` [Example 131, 8-(2-Chloro-benzenesulfonyl)-2-(2-methyl-2H-indazol-5-yl)-2,8-diaza-spiro[4.5]decan-1-one]: the IC50 is 570 nM.
With `O=C(N1CCCC1)N1CCC2(CC1)CCN(c1ccc(OC(F)(F)F)cc1)C2=O` [Example 265, 8-(Pyrrolidine-1-carbonyl)-2-(4-trifluoromethoxy-phenyl)-2,8-diaza-spiro[4.5]decan-1-one], the IC50 worked out at 200 nM.
As to `CC(C)CS(=O)(=O)N1CCC2(CCN(c3ccc(OS(C)(=O)=O)cc3)C2=O)CC1` [Example 62, Methanesulfonic acid 4-[8-(2-methyl-propane-1-sulfonyl)-1-oxo-2,8-diaza-spiro[4.5]dec-2-yl]-phenyl ester], the IC50 stood at 250 nM.
With `CC(=O)c1ccc(N2CCC3(CCN(S(=O)(=O)c4ccccc4Cl)CC3)C2=O)cc1` [Example 151, 2-(4-Acetyl-phenyl)-8-(2-chloro-benzenesulfonyl)-2,8-diaza-spiro[4.5]decan-1-one], the IC50 was 50 nM.
Consider `CN(C(=O)N1CCC2(CC1)CCN(c1ccc(OC(F)(F)F)cc1)C2=O)C1CCCCC1` [Example 276, 1-Oxo-2-(4-trifluoromethoxy-phenyl)-2,8-diaza-spiro[4.5]decane-8-carboxylic acid cyclohexyl-methyl-amide], for which the IC50 amounted to 70 nM.
In the case of `CCC(C)c1ccc(N2CCC3(CCN(S(=O)(=O)c4cccs4)CC3)C2=O)cc1` (stereo not drawn) [Example 43, 2-(4-sec-Butyl-phenyl)-8-(thiophene-2-sulfonyl)-2,8-diaza-spiro[4.5]decan-1-one], the IC50 was 40 nM.
As for `CN(C(=O)N1CCC2(CC1)CCN(c1ccc(OC(F)(F)F)cc1)C2=O)c1ccc(C(F)(F)F)cc1` [Example 299, 1-Oxo-2-(4-trifluoromethoxy-phenyl)-2,8-diaza-spiro[4.5]decane-8-carboxylic acid methyl-(4-trifluoromethyl-phenyl)-amide], the IC50 worked out at 170 nM.
`CCCCCN(C)C(=O)N1CCC2(CC1)CCN(c1ccc(OC(F)(F)F)cc1)C2=O` [Example 273, 1-Oxo-2-(4-trifluoromethoxy-phenyl)-2,8-diaza-spiro[4.5]decane-8-carboxylic acid methyl-pentyl-amide]: the 50% inhibitory concentration (IC50) is 80 nM.
`O=C1N(c2ccc(OC(F)(F)F)cc2)CCC12CCN(S(=O)(=O)NCc1ccccc1)CC2` [Example 287, 1-Oxo-2-(4-trifluoromethoxy-phenyl)-2,8-diaza-spiro[4.5]decane-8-sulfonic acid benzylamide]: the IC50 was determined as 50 nM.
In the case of `Cn1ccc(S(=O)(=O)N2CCC3(CCN(c4ccc(OC(F)(F)F)cc4)C3=O)CC2)n1` [Example 184, 8-(1-Methyl-1H-pyrazole-3-sulfonyl)-2-(4-trifluoromethoxy-phenyl)-2,8-diaza-spiro[4.5]decan-1-one], the IC50 was found to be 80 nM.
As to `CC(C)CS(=O)(=O)N1CCC2(CCN(c3ccc(OCCC(F)(F)F)cc3)C2=O)CC1` [Example 102, 8-(2-Methyl-propane-1-sulfonyl)-2-[4-(3,3,3-trifluoro-propoxy)-phenyl]-2,8-diaza-spiro[4.5]decan-1-one], the IC50 stood at 360 nM.
For `CC(Oc1ccc(N2CCC3(CCN(S(=O)(=O)c4ccccc4Cl)CC3)C2=O)cn1)C(F)(F)F` (racemic) [Example 114, 8-(2-Chloro-benzenesulfonyl)-2-[6-(2,2,2-trifluoro-1-methyl-ethoxy)-pyridin-3-yl]-2,8-diaza-spiro[4.5]decan-1-one (rac)], the IC50 is 50 nM.
`O=C1N(Cc2cccc(Cl)c2)CCC12CCN(S(=O)(=O)c1ccccc1Cl)CC2` [Example 235, 8-(2-Chloro-benzenesulfonyl)-2-(3-chloro-benzyl)-2,8-diaza-spiro[4.5]decan-1-one]: the IC50 turned out to be 400 nM.
With `CCN(C(=O)N1CCC2(CC1)CCN(c1ccc(OC(F)(F)F)cc1)C2=O)c1ccccc1` [Example 279, 1-Oxo-2-(4-trifluoromethoxy-phenyl)-2,8-diaza-spiro[4.5]decane-8-carboxylic acid ethyl-phenyl-amide], the IC50 was found to be 40 nM.
Take `CCC(C(=O)N1CCC2(CC1)CCN(c1ccc(OC(F)(F)F)cc1)C2=O)c1ccccc1` (stereo not drawn) [Example 223, 8-(2-Phenyl-butyryl)-2-(4-trifluoromethoxy-phenyl)-2,8-diaza-spiro[4.5]decan-1-one]: the IC50 stood at 110 nM.
For `CC(C)NC(=O)N1CCC2(CC1)CCN(c1ccc(OC(F)(F)F)cc1)C2=O` [Example 254, 1-Oxo-2-(4-trifluoromethoxy-phenyl)-2,8-diaza-spiro[4.5]decane-8-carboxylic acid isopropylamide], the IC50 came to 400 nM.
In the case of `COCC(C)(C)c1ccc(N2CCC3(CCN(S(=O)(=O)c4c(C)noc4C)CC3)C2=O)cc1` [Example 112, 8-(3,5-Dimethyl-isoxazole-4-sulfonyl)-2-[4-(2-methoxy-1,1-dimethyl-ethyl)-phenyl]-2,8-diaza-spiro[4.5]decan-1-one] it was 270 nM; in that of `CC(Oc1ccc(N2CCC3(CCN(S(=O)(=O)c4ccccc4Cl)CC3)C2=O)cc1)C(F)(F)F` (stereo not drawn) [Example 125, 8-(2-Chloro-benzenesulfonyl)-2-[4-(2,2,2-trifluoro-1-methyl-ethoxy)-phenyl]-2,8-diaza-spiro[4.5]decan-1-one], 20 nM; in that of `CCNS(=O)(=O)N1CCC2(CCN(c3ccc(OC(F)(F)F)cc3)C2=O)CC1` [Example 290, 1-Oxo-2-(4-trifluoromethoxy-phenyl)-2,8-diaza-spiro[4.5]decane-8-sulfonic acid ethylamide], 160 nM.
In the case of `O=C1N(c2ccc(COCC3CC3)cc2)CCC12CCN(S(=O)(=O)c1ccccc1Cl)CC2` [Example 148, 8-(2-Chloro-benzenesulfonyl)-2-(4-cyclopropylmethoxymethyl-phenyl)-2,8-diaza-spiro[4.5]decan-1-ones] it was 90 nM.

In general, IC50 refers to the concentration that gives 50% inhibition.

Source of the values: US8329904B2, “Azacyclic derivatives” (Hoffmann-La Roche Inc., priority 2009, dated 2012).
